Target: T1, PI3Kα (p110α/p85α) (Homo sapiens, UniProt P42336)
T1 construct: purchased BPS Bioscience (San Diego, Calif.) or Millipore (Billerica, Mass.)
Experiment: HTRF assay, potency against active PI3Kα
Assay type: biochemical
Details: HTRF; [ATP]=50 μM, [di-C8-PIP2]=10 μM; 30 min pre-incubation; read-out: PI3Kα Inhibition
Outline: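 IC50 came from a variable-slope fit of % inhibition, calculated from the HTRF emission ratio relative to wells with and without enzyme. Reactions with the active enzyme complex ran 30-60 minutes at 25 °C after ATP addition before stop and detection reagents.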

T1 sequence (P42336 whole entry): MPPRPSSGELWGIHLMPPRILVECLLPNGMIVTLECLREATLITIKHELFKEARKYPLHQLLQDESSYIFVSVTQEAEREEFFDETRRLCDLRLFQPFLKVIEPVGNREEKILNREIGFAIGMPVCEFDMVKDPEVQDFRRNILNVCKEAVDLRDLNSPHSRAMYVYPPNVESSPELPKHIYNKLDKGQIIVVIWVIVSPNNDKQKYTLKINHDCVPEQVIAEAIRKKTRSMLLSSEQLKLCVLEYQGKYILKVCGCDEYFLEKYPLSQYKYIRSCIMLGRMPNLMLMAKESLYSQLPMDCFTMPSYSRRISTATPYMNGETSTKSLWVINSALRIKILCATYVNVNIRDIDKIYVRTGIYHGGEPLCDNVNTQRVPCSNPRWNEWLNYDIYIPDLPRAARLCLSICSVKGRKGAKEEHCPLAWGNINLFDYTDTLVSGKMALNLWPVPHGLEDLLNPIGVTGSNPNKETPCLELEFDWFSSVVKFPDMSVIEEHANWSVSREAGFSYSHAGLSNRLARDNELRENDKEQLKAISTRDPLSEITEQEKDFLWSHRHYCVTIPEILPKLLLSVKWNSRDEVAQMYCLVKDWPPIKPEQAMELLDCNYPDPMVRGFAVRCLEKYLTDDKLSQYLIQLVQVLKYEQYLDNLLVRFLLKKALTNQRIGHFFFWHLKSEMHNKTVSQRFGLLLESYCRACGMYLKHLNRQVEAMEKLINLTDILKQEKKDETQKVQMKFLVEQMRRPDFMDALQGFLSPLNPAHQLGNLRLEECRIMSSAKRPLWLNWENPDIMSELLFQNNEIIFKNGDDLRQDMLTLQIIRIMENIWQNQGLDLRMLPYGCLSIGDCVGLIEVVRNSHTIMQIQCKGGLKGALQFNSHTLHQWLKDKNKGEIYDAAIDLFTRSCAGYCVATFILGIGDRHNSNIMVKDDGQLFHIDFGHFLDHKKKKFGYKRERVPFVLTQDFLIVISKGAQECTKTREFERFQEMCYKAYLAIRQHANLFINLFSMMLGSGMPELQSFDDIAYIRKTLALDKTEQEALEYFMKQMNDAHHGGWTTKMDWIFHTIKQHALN
T1 sequence (P27986 whole entry partner): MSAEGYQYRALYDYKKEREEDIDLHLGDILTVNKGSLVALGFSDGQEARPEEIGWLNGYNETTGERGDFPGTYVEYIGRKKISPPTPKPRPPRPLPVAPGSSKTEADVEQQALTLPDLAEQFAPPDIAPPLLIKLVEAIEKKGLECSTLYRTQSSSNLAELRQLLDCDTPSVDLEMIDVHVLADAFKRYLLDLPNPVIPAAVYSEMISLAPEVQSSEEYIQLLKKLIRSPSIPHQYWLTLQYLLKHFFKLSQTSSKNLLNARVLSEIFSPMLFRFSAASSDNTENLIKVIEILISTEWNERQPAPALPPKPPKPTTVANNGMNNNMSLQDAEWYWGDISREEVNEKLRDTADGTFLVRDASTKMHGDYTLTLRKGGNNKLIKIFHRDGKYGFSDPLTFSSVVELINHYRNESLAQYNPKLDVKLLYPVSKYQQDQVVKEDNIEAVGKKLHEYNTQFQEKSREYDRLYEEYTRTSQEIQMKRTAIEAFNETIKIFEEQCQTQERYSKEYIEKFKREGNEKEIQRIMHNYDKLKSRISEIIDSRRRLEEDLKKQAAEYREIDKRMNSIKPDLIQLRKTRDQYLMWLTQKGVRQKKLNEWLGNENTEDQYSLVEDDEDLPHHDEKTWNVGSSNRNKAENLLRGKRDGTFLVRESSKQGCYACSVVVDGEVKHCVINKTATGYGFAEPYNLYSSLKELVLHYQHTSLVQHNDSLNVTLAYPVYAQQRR

| SMILES | IC50 [nM] |
| --- | --- |
| C=C(C)C(=O)CCC(=O)N1CCC(C#Cc2cc3nc(-c4cccc(O)c4)nc(N4CCOCC4)c3s2)CC1 [II-a-103, 1-(4-((2-(3-hydroxyphenyl)-4-morpholinothieno[3,2-d]pyrimidin-6-yl)ethynyl)piperidin-1-yl)-5-methylhex-5-ene-1,4-dione] | < 10 |
| C=CC(=O)NCC(=O)N1CCC(O)(c2cc3nc(-c4cccc5[nH]ncc45)nc(N4CCOCC4)c3s2)CC1 [II-a-134, N-(2-(4-(2-(1H-indazol-4-yl)-4-morpholinothieno[3,2-d]pyrimidin-6-yl)-4-hydroxypiperidin-1-yl)-2-oxoethyl)acrylamide] | 100 to 1000 |
| C/C=C/C(=O)CCC(=O)NCc1ccc(-c2cc3nc(-c4cccc(O)c4)nc(N4CCOCC4)c3s2)cc1 [II-a-80, (E)-N-(4-(2-(3-hydroxyphenyl)-4-morpholinothieno[3,2-d]pyrimidin-6-yl)benzyl)-4-oxohept-5-enamide] | < 10 |
| C=CC(=O)NCc1ccc(-c2cc3nc(-c4cccc5[nH]ncc45)nc(N4CCOCC4)c3s2)cc1 [II-a-107, N-(4-(2-(1H-indazol-4-yl)-4-morpholinothieno[3,2-d]pyrimidin-6-yl)benzyl)acrylamide] | 100 to 1000 |
| O=C(CCl)N1CCN(Cc2cc3nc(-c4cccc5[nH]ncc45)nc(N4CCOCC4)c3s2)CC1 [II-a-145, 1-(4-((2-(1H-indazol-4-yl)-4-morpholinothieno[3,2-d]pyrimidin-6-yl)methyl)piperazin-1-yl)-2-chloroethanone] | 100 to 1000 |
| C=CC(=O)N1CCC(O)(C#Cc2cc3nc(-c4cccc(O)c4)nc(N4CCOCC4)c3s2)CC1 [II-a-69, 1-(4-hydroxy-4-((2-(3-hydroxyphenyl)-4-morpholinothieno[3,2-d]pyrimidin-6-yl)ethynyl)piperidin-1-yl)prop-2-en-1-one] | 10 to 100 |
| CC(C)=CC(=O)CCCC(=O)N1CC=C(c2cc3nc(-c4cnc(N)nc4)cc(C4=CCOCC4)c3s2)CC1 [II-g-4, 1-(4-(5-(2-aminopyrimidin-5-yl)-7-(3,6-dihydro-2H-pyran-4-yl)thieno[3,2-b]pyridin-2-yl)-5,6-dihydropyridin-1(2H)-yl)-7-methyloct-6-ene-1,5-dione] | > 1000 |
| C/C=C/C(=O)CCC(=O)N1CCc2cc(-c3cc4nc(-c5cccc(O)c5)nc(N5CCOCC5)c4s3)ccc2C1 [II-a-108, (E)-1-(6-(2-(3-hydroxyphenyl)-4-morpholinothieno[3,2-d]pyrimidin-6-yl)-3,4-dihydroisoquinolin-2(1H)-yl)hept-5-ene-1,4-dione] | < 10 |
| CC(C)=CC(=O)CCCC(=O)N1CC=C(c2cc3nc(-c4cnc(N)nc4)nc(N4CCOCC4)c3s2)CC1 [II-a-166, 1-(4-(2-(2-aminopyrimidin-5-yl)-4-morpholinothieno[3,2-d]pyrimidin-6-yl)-5,6-dihydropyridin-1(2H)-yl)-7-methyloct-6-ene-1,5-dione] | < 10 |
| C/C=C/C(=O)CCC(=O)N1CCC(O)(C#Cc2cc3nc(-c4cccc(O)c4)nc(N4CCOCC4)c3s2)CC1 [II-a-104, (E)-1-(4-hydroxy-4-((2-(3-hydroxyphenyl)-4-morpholinothieno[3,2-d]pyrimidin-6-yl)ethynyl)piperidin-1-yl)hept-5-ene-1,4-dione] | < 10 |

Results, then the compound that gave them:

| IC50 [nM] | SMILES |
| --- | --- |
| 10 to 100 | C=CC(=O)N1CCN(c2ccc(-c3ccnc4ccc(/C=C5\SC(=O)NC5=O)cc34)cc2)CC1 [V-11, (Z)-5-((4-(4-(4-acryloylpiperazin-1-yl)phenyl)quinolin-6-yl)methylene)thiazolidine-2,4-dione] |
| 100 to 1000 | CC(C)=CC(=O)c1ccc(CCNC(=O)c2cc(-c3cnc(N)nc3)nc(N3CCOCC3)c2)cc1 [XII-10, 2-(2-aminopyrimidin-5-yl)-N-(4-(3-methylbut-2-enoyl)phenethyl)-6-morpholinoisonicotinamide] |
| 10 to 100 | C=CC(=O)NCCOCCOc1ccc2c(c1OC)N=C(NC(=O)c1cccnc1)N1CCN=C21 [IX-1, N-(8-(2-(2-acrylamidoethoxy)ethoxy)-7-methoxy-2,3-dihydroimidazo[1,2-c]quinazolin-5-yl)nicotinamide] |
| 100 to 1000 | CC(C)=CC(=O)C1(C(=O)N2CCC3(CC2)CCN(c2cc(-c4cnc(N)nc4)nc(N4CCOCC4)c2)CC3)CC1 [XII-36, 1-(1-(9-(2-(2-aminopyrimidin-5-yl)-6-morpholinopyridin-4-yl)-3,9-diazaspiro[5.5]undecane-3-carbonyl)cyclopropyl)-3-methylbut-2-en-1-one] |
| 100 to 1000 | CC(C)=CC(=O)CCCC(=O)NCC#Cc1cc(-c2cnc(N)nc2)nc(N2CCOCC2)c1 [XII-20, N-(3-(2-(2-aminopyrimidin-5-yl)-6-morpholinopyridin-4-yl)prop-2-ynyl)-7-methyl-5-oxooct-6-enamide] |
| > 1000 | C=CC(=O)N(C)CC(=O)N1CCC(n2nc(-c3ccc(OC)c(OC)c3)c3c(N)ncnc32)CC1 [XI-2, N-(2-(4-(4-amino-3-(3,4-dimethoxyphenyl)-1H-pyrazolo[3,4-d]pyrimidin-1-yl)piperidin-1-yl)-2-oxoethyl)-N-methylacrylamide] |
| > 1000 | CC(C)=CC(=O)c1ccc(CCNC(=O)c2cc(-c3cnc(N)cc3C(F)(F)F)nc(N3CCOCC3)c2)cc1 [XII-9, 6′-amino-N-(4-(3-methylbut-2-enoyl)phenethyl)-6-morpholino-4′-(trifluoromethyl)-2,3′-bipyridine-4-carboxamide] |
| 10 to 100 | C/C=C/C(=O)CCC(=O)NCCOc1ccc2c(c1OC)N=C(NC(=O)c1cccnc1)N1CCN=C21 [IX-2, (E)-N-(7-methoxy-8-(2-(4-oxohept-5-enamido)ethoxy)-2,3-dihydroimidazo[1,2-c]quinazolin-5-yl)nicotinamide] |
| > 1000 | CCC(=O)N(C)CC(=O)N1CCC(n2nc(-c3ccc(OC)c(OC)c3)c3c(N)ncnc32)CC1 [XI^R-2, N-(2-(4-(4-amino-3-(3,4-dimethoxyphenyl)-1H-pyrazolo[3,4-d]pyrimidin-1-yl)piperidin-1-yl)-2-oxoethyl)-N-methylpropionamide] |
| 10 to 100 | CC(C)=CC(=O)C(=O)N1CCN(c2ccc(-c3cc(-c4cnc(N)nc4)nc(N4CCOCC4)c3)cn2)CC1 [XII-25, 1-(4-(2′-(2-aminopyrimidin-5-yl)-6′-morpholino-3,4′-bipyridin-6-yl)piperazin-1-yl)-4-methylpent-3-ene-1,2-dione] |
| 10 to 100 | CC(C)=CC(=O)CN1CCN(c2ccc(-c3cc(-c4cnc(N)nc4)nc(N4CCOCC4)c3)cn2)CC1 [XII-27, 1-(4-(2′-(2-aminopyrimidin-5-yl)-6′-morpholino-3,4′-bipyridin-6-yl)piperazin-1-yl)-4-methylpent-3-en-2-one] |
| > 1000 | C=CC(=O)N(C)CC(=O)N1CCC(n2nc(-c3cc4cc(O)ccc4[nH]3)c3c(N)ncnc32)CC1 [XI-8, N-(2-(4-(4-amino-3-(5-hydroxy-1H-indol-2-yl)-1H-pyrazolo[3,4-d]pyrimidin-1-yl)piperidin-1-yl)-2-oxoethyl)-N-methylacrylamide] |
| > 1000 | CC(C)=CC(=O)CCCCC#Cc1cc(-c2cccc3[nH]ncc23)nc(N2CCOCC2)c1 [XII-7, 10-(2-(1H-indazol-4-yl)-6-morpholinopyridin-4-yl)-2-methyldec-2-en-9-yn-4-one] |
| 10 to 100 | COc1c(OCCNC(=O)c2ccc(NC(=O)/C=C/c3ncc[nH]3)cc2)ccc2c1N=C(NC(=O)c1cccnc1)N1CCN=C21 [IX-6, (E)-N-(8-(2-(4-(3-(1H-imidazol-2-yl)acrylamido)benzamido)ethoxy)-7-methoxy-2,3-dihydroimidazo[1,2-c]quinazolin-5-yl)nicotinamide] |

Source: patent publication US20110230476A1, “PI3 KINASE INHIBITORS AND USES THEREOF” (AVILA THERAPEUTICS, INC., priority 2009, published 2011)
